{
  "source": "paper PMC6199744",
  "about": "“Development of Chemical Proteomics for the Folateome and Analysis of the Kinetoplastid Folateome” (ACS Infectious Diseases, 2018)",
  "key": {"[1]": {"tested_on": "SUCCINYL-COA SYNTHETASE ALPHA SUBUNIT, PUTATIVE (Tb427.03.2230)", "assay": "Multitargeted bead mixture competition", "assay_type": "binding", "conditions": "free ligand 100 μM, T. brucei lysate"}, "[2]": {"tested_on": "NGG1 INTERACTING FACTOR 3-LIKE (Tb427tmp.02.5000)", "assay_type": "binding", "conditions": "multitargeted bead mixture; free ligand 100 μM; T. brucei lysate; Tb427tmp.02.5000"}, "[3]": {"tested_on": "ACETYLTRANSFERASE, PUTATIVE (Tb427.08.3310)", "assay": "Multitargeted bead mixture competition", "assay_type": "binding", "conditions": "free ligand 100 μM, T. brucei lysate"}, "PTR-1": {"target": "PTR-1 (Trypanosoma brucei brucei, UniProt O76290)", "sequence (O76290 entry or part of it)": "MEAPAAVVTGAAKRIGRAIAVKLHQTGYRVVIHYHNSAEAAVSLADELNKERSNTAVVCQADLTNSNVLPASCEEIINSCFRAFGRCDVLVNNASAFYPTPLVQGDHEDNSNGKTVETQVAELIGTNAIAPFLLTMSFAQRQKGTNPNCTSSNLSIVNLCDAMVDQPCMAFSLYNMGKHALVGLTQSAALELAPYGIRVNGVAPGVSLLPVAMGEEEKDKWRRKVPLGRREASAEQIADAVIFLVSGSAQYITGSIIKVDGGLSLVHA", "assay": "Individual bead pull down with competing free ligand", "conditions": "competing free ligand 100 μM; bead = immobilized compound of the row; T. brucei lysate; read-out: % Inhibition of protein binding to bead, PTR-1, T. brucei", "from_the_text": "(§1) Antifolate compounds were immobilized onto NHS-activated sepharose beads/reverse sepharose beads through amide coupling via either an amino or carboxyl group (see Figure 3). The reaction was monitored by observing the disappearance of test compound by LCMS, after which the unreacted coupling sites were capped with NHS-acetate or aminoethanol.\n(§2) Folate metabolizing enzymes are not highly abundant proteins,[19],[20] potentially making their identification by MS difficult. Beads will not only pull down the low abundant high affinity binders but also attract highly abundant, low affinity binders or so-called nonspecific binders. Sometimes, the nonspecific high abundant proteins can mask true binders. The target identification approach used in this study overcomes this issue by performing competition studies. Various concentrations of the free unmodified inhibitor (test compound) were preincubated with the lysate, prior to addition of the beads derivatized with immobilized compounds. Following washing of the bound proteins from the beads and tryptic digest, the peptides were labeled using the TMTs and then pooled. Differences in peptide abundance were analyzed by fragmentation of the isotope-coded isobaric tags in the MS/MS spectra (Figure 5).[9],[11],[12],[21] While the competition experiments with test compound confirm specific binding, it is also possible that some proteins will have a stronger binding interaction with the derivatized beads than the competing test compound, due to subtle differences in the interactions between the immobilized compound and the test compound with the target protein."}, "DHFR-TS": {"target": "DHFR-TS (Trypanosoma brucei brucei, UniProt Q27783)", "sequence (Q27783 whole entry)": "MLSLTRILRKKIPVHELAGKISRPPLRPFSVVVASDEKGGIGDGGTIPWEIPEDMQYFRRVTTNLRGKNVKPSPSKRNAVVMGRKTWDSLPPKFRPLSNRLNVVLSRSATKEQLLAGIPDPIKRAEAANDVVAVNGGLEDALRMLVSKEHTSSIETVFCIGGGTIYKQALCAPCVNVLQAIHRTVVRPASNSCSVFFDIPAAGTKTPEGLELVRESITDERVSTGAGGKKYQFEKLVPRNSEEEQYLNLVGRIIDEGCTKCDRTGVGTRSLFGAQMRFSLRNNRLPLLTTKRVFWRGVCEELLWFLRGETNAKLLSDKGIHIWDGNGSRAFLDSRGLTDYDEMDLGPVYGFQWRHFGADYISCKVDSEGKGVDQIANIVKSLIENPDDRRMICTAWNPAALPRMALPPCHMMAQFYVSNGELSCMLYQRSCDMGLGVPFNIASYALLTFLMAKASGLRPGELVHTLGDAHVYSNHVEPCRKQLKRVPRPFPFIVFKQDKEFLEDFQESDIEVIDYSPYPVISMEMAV", "assay": "Individual bead pull down with competing free ligand", "conditions": "competing free ligand 100 μM; bead = immobilized compound of the row; T. brucei lysate; read-out: % Inhibition of protein binding to bead, DHFR-TS, T. brucei", "from_the_text": "as §1, §2"}, "[4]": {"tested_on": "HYPOTHETICAL PROTEIN, CONSERVED (TB427.05.3680)", "assay": "Multitargeted bead mixture competition", "assay_type": "binding", "conditions": "free ligand 100 μM, T. brucei lysate"}, "[5]": {"target": "PTERIDINE REDUCTASE (TB927.8.2210) (Trypanosoma brucei brucei, UniProt O76290)", "sequence (O76290 entry or part of it)": "as the sequence (O76290 entry or part of it) above", "assay": "Multitargeted bead mixture competition", "assay_type": "binding, T. brucei", "conditions": "T. brucei lysate"}, "[6]": {"tested_on": "LMJF.26.2560 (hypothetical conserved ATP binding protein)", "assay": "Individual MTX bead pull down", "conditions": "L. major"}, "[7]": {"tested_on": "PHOSPHATIDYLINOSITOL-4-PHOSPHATE 5-KINASE, PUTATIV (TB427.10.3890)", "assay": "Multitargeted bead mixture competition", "assay_type": "binding", "conditions": "free ligand 100 μM, T. brucei lysate"}, "[8]": {"target": "DIHYDROFOLATE REDUCTASE-T[…] (TB427.07.5480) (Trypanosoma brucei brucei, UniProt Q27783)", "sequence (Q27783 whole entry)": "as the sequence (Q27783 whole entry) above", "assay": "Multitargeted bead mixture competition", "assay_type": "binding", "conditions": "T. brucei lysate"}, "[9]": {"tested_on": "IRON/ASCORBATE OXIDOREDUCTASE FAMILY PROTEIN, PUTA (Tb427.02.6180)", "assay": "Multitargeted bead mixture competition", "assay_type": "binding, T. brucei", "conditions": "multitargeted bead mixture; free ligand 100 μM; T. brucei lysate; Tb427.02.6180"}, "TB427.04.1870": {"tested_on": "TB427.04.1870", "assay": "Multitargeted bead mixture competition", "assay_type": "binding", "conditions": "free ligand 100 μM, T. brucei lysate"}, "methylene-THF-reductase": {"target": "methylene-THF-reductase (Homo sapiens, UniProt P42898)", "sequence (P42898 whole entry)": "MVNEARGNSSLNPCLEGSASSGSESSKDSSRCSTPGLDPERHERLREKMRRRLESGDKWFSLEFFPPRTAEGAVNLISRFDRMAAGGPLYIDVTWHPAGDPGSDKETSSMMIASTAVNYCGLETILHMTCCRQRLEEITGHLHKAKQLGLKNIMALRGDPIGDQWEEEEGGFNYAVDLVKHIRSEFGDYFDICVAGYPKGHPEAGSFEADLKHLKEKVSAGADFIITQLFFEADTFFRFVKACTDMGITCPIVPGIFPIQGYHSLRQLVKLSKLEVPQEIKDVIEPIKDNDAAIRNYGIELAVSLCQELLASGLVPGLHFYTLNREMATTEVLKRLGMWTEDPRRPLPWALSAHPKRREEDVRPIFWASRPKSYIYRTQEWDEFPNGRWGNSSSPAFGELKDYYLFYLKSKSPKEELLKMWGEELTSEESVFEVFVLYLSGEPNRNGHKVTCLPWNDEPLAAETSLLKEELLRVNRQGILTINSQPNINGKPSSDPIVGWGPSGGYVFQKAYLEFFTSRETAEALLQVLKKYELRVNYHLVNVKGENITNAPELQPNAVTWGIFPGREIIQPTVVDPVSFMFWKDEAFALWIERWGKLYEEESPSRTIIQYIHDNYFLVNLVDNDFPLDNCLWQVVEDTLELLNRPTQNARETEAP", "assay": "Multitargeted bead mixture competition, HeLa cell extract", "assay_type": "binding", "conditions": "bead mixture; HeLa cell extract"}, "TB11.03.0290": {"tested_on": "TB11.03.0290", "assay": "Multitargeted bead mixture competition", "assay_type": "binding, T. brucei", "conditions": "multitargeted bead mixture; free ligand 100 μM; T. brucei lysate; TB11.03.0290"}, "TB927.7.1340": {"tested_on": "TB927.7.1340", "assay": "Multitargeted bead mixture competition", "assay_type": "binding", "conditions": "free ligand 100 μM, T. brucei lysate"}, "[10]": {"tested_on": "BRANCHED-CHAIN AMINO ACID AMINOTRANSFERASE, PUTATI (TB427.02.4590)", "assay": "Multitargeted bead mixture competition", "assay_type": "binding", "conditions": "free ligand 100 μM, T. brucei lysate"}, "TB927.8.6760": {"tested_on": "TB927.8.6760", "assay": "Multitargeted bead mixture competition", "assay_type": "binding", "conditions": "free ligand 100 μM, T. brucei lysate"}, "[11]": {"target": "GLYCERALDEHYDE 3-PHOSPHATE DEHYDROGENASE, GLYCOSOM (TB427.06.4300) (Trypanosoma brucei brucei, UniProt P22512)", "sequence (P22512 whole entry)": "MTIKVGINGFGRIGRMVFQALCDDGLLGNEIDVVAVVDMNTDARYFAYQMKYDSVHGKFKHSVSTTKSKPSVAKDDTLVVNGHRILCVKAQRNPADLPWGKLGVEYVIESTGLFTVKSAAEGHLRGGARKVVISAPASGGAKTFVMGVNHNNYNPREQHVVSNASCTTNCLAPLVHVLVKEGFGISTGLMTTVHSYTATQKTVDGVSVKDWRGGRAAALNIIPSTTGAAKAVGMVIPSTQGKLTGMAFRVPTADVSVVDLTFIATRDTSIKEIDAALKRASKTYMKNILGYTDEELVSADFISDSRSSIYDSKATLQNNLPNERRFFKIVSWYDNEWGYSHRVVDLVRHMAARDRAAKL", "assay": "Multitargeted bead mixture competition", "assay_type": "binding, T. brucei"}, "TB927.8.6460": {"tested_on": "TB927.8.6460", "assay": "Multitargeted bead mixture competition", "assay_type": "binding, T. brucei", "conditions": "multitargeted bead mixture; free ligand 100 μM; T. brucei lysate; TB927.8.6460"}, "[12]": {"tested_on": "LMJF.30.2970 (glyceraldehyde-3-phosphate dehydrogenase, GAPDH)", "assay": "Individual MTX bead pull down", "assay_type": "binding", "conditions": "L. major"}, "[13]": {"tested_on": "PEPTIDYL-PROLYL CIS-TRANS ISOMERASE (CYCLOPHILIN- (TB427TMP.211.1350))", "assay": "Multitargeted bead mixture competition", "assay_type": "binding", "conditions": "free ligand 100 μM, T. brucei lysate"}, "[14]": {"tested_on": "HYPOTHETICAL PROTEIN, CONSERVED (TB427.03.2670)", "assay": "Multitargeted bead mixture competition", "assay_type": "binding", "conditions": "free ligand 100 μM, T. brucei lysate"}, "[15]": {"tested_on": "HYPOTHETICAL PROTEIN, CONSERVED (Tb427.10.6100)", "assay": "Multitargeted bead mixture competition", "assay_type": "binding", "conditions": "free ligand 100 μM, T. brucei lysate"}, "[16]": {"tested_on": "PROTEIN KINASE, PUTATIVE (Tb427.03.1570)", "assay": "Multitargeted bead mixture competition", "assay_type": "binding", "conditions": "free ligand 100 μM, T. brucei lysate"}, "TB09.211.1690": {"tested_on": "TB09.211.1690", "assay": "Multitargeted bead mixture competition", "assay_type": "binding", "conditions": "free ligand 100 μM, T. brucei lysate"}, "[17]": {"tested_on": "CHOLINE KINASE (TB427TMP.18.0017)", "assay": "Multitargeted bead mixture competition", "assay_type": "binding, T. brucei", "conditions": "multitargeted bead mixture; free ligand 100 μM; T. brucei lysate; TB427TMP.18.0017 CHOLINE KINASE"}},
  "data": [
    {"smiles": "CN(Cc1cnc2nc(N)nc(N)c2n1)c1ccc(C(=O)N[C@@H](CCC(=O)O)C(=O)O)cc1", "note": "[MTX, methotrexate]", "values": [
      {"measurement": "percentage of competition from bead binding", "setting": "[1]", "result": 18, "unit": "%"},
      {"measurement": "percentage of competition from bead binding", "setting": "[2]", "result": 31, "unit": "%"},
      {"measurement": "percentage of competition from bead binding", "setting": "[3]", "result": 31, "unit": "%"},
      {"measurement": "inhibition at 100 µM", "setting": "PTR-1", "result": 90, "unit": "%"},
      {"measurement": "inhibition at 100 µM", "setting": "DHFR-TS", "result": 95, "unit": "%"},
      {"measurement": "percentage of competition from bead binding", "setting": "[4]", "result": 69, "unit": "%"},
      {"measurement": "competition for PTR1 (Figure 6)", "setting": "[5]; bead mixture, compound 100 μM", "result": "competed for PTR1"},
      {"measurement": "percentage of competition from bead binding", "setting": "[5]; multitargeted bead mixture, free ligand 100 μM, TB927.8.2210 PTERIDINE REDUCTASE", "result": 93, "unit": "%"},
      {"measurement": "binding of LMJF.26.2560 to MTX", "setting": "[6]", "result": "bind to MTX"},
      {"measurement": "percentage of competition from bead binding", "setting": "[7]", "result": 56, "unit": "%"},
      {"measurement": "competition for DHFR-TS (Figure 6)", "setting": "[8]; bead mixture, compound 100 μM", "result": "compete for DHFR-TS"},
      {"measurement": "percentage of competition from bead binding", "setting": "[8]; multitargeted bead mixture, free ligand 100 μM, TB427.07.5480 DHFR-TS", "result": 85, "unit": "%"},
      {"measurement": "percentage of competition from bead binding", "setting": "[9]", "result": 17, "unit": "%"},
      {"measurement": "percentage of competition from bead binding", "setting": "TB427.04.1870", "result": 58, "unit": "%"},
      {"measurement": "inhibition, methylene-THF-reductase", "setting": "methylene-THF-reductase", "result": 77, "unit": "%"},
      {"measurement": "percentage of competition from bead binding", "setting": "TB11.03.0290", "result": 57, "unit": "%"},
      {"measurement": "percentage of competition from bead binding", "setting": "TB927.7.1340", "result": 51, "unit": "%"},
      {"measurement": "percentage of competition from bead binding", "setting": "[10]", "result": 34, "unit": "%"},
      {"measurement": "percentage of competition from bead binding", "setting": "TB927.8.6760", "result": 50, "unit": "%"},
      {"measurement": "binding to GAPDH (Tb427.06.4300)", "setting": "[11]; bead mixture, T. brucei lysates", "result": "bound"},
      {"measurement": "percentage of competition from bead binding", "setting": "[11]; multitargeted bead mixture, free ligand 100 μM, T. brucei lysate, TB427.06.4300 GAPDH", "result": 56, "unit": "%"},
      {"measurement": "percentage of competition from bead binding", "setting": "TB927.8.6460", "result": 54, "unit": "%"},
      {"measurement": "binding of LMJF.30.2970 (GAPDH) to MTX", "setting": "[12]", "result": "bind to MTX"},
      {"measurement": "percentage of competition from bead binding", "setting": "[13]", "result": 50, "unit": "%"},
      {"measurement": "percentage of competition from bead binding", "setting": "[14]", "result": 50, "unit": "%"},
      {"measurement": "percentage of competition from bead binding", "setting": "[15]", "result": 23, "unit": "%"},
      {"measurement": "percentage of competition from bead binding", "setting": "[16]", "result": 9, "unit": "%"},
      {"measurement": "percentage of competition from bead binding", "setting": "TB09.211.1690", "result": 51, "unit": "%"},
      {"measurement": "percentage of competition from bead binding", "setting": "[17]", "result": 57, "unit": "%"}
    ]}
  ]
}
